Data: ChEMBL document CHEMBL4339212, “Novel 7-formyl-naphthyridyl-ureas derivatives as potential selective FGFR4 inhibitors: Design, synthesis, and biological activity studies” (Bioorg Med Chem, 2019)

Assays:
[1] = Half life in Sprague-Dawley rat at 5 mg/kg, ig measured after 5 mins to 24 hrs by LC-MS analysis; format: ADME, organism-based; settings: in vivo, po
[2] = biological target: Fibroblast growth factor receptor 1 (Homo sapiens, UniProt P11362); experiment: Inhibition of FGFR1 (unknown origin) incubated for 60 mins by caliper microfluidic mobility shift technology based assay
Fibroblast growth factor receptor 1, sequence (P11362 whole entry): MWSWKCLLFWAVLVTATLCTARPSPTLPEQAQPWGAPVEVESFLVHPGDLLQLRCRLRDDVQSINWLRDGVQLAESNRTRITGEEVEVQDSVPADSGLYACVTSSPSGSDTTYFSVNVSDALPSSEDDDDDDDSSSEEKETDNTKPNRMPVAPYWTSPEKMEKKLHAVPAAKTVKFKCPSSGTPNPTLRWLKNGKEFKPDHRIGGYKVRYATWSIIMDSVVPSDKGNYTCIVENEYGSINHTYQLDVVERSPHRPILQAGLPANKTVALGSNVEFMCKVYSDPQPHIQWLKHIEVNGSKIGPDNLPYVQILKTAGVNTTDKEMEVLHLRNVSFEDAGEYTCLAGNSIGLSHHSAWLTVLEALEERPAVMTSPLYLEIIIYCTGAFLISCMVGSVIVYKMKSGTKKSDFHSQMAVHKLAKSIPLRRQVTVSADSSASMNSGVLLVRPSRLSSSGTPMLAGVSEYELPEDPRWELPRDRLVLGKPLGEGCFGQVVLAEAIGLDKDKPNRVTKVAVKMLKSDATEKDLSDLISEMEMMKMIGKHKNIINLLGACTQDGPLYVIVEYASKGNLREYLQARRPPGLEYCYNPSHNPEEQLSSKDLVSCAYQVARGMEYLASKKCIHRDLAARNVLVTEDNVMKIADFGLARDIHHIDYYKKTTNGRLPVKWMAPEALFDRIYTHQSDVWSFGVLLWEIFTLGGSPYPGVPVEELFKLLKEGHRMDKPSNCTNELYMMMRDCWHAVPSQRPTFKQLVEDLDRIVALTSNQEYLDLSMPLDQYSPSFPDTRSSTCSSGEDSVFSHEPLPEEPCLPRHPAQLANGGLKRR

[3] = test system: Hep 3B2; experiment: cells; settings: Homo sapiens, Hep3B, 72 h
[4] = test system: Huh-7; experiment: cells; settings: Homo sapiens, Huh-7, 72 h
[5] = AUC in Sprague-Dawley rat at 5 mg/kg, ig measured after 5 mins to 24 hrs by LC-MS analysis; format: ADME, organism-based; parameters: dose 5 mg/kg, time 0.083-24 hr, route […]; settings: in vivo, po
[6] = Cmax in Sprague-Dawley rat at 5 mg/kg, ig measured after 5 mins to 24 hrs by LC-MS analysis; format: ADME, organism-based; parameters: dose 5 mg/kg, route […]; settings: in vivo, po
[7] = test system: SK-HEP1; experiment: Antiproliferative activity against human SKHEP1 cells without FGFR4 gene amplification assessed as inhibition of cell proliferation incubated for 72 hrs by CellTiter-Glo method; format: functional, cell-based; settings: SK-HEP1, 72 h
[8] = Mean residence time in Sprague-Dawley rat at 5 mg/kg, ig measured after 5 mins to 24 hrs by LC-MS analysis; format: ADME, organism-based; settings: in vivo, po
[9] = test system: Huh-7; experiment: Antitumor activity against human HuH7 cells xenografted in nude BALB/c mouse assessed as inhibition of tumor growth at 30 mg/kg bid for 14 days and measured twice per week relative to untreated control; format: functional; settings: Huh-7, 336 h, read-out: TGI
[10] = test system: Hep 3B2; experiment: Antitumor activity against human Hep3B cells xenografted in nude BALB/c mouse assessed as inhibition of tumor growth at 10 mg/kg bid for 14 days and measured twice per week relative to untreated control; format: functional; settings: 336 h, read-out: TGI

Row | half-life [1] [h] | IC50 [2] [µM] | IC50 [3] [µM] | IC50 [4] [µM] | AUC [5] [ng·h/mL] | Cmax [6] [ng/mL] | IC50 [7] [µM] | MRT [8] [h] | SMILES | inhibition in vivo at 30 mg/kg [9] [%] | inhibition in vivo at 10 mg/kg [10] [%]
1 | 1.2 | > 10 | 0.0249 | 0.0275 | 14700 | 3360 | > 10 | 2.6 | CO[C@H]1CCN(c2cc(NC(=O)N3CCCc4cc(CN5CCOCC5=O)c(C=O)nc43)ncc2C#N)C1 | – | –
2 | – | > 10 | 0.0208 | 0.0322 | – | – | > 10 | – | COCCSc1cc(NC(=O)N2CCCc3cc(CN4CCOCC4=O)c(C=O)nc32)ncc1C#N | – | –
3 | – | > 10 | 0.0019 | 0.0083 | 12300 | – | > 10 | – | COCCNc1cc(NC(=O)N2CCCc3cc(CN4CC[C@@H](OC)C4=O)c(C=O)nc32)ncc1C#N | – | –
4 | – | > 10 | 0.0938 | 0.297 | – | – | > 10 | – | CN(C)C1CCN(c2cc(NC(=O)N3CCCc4cc(CN5CCOCC5=O)c(C=O)nc43)ncc2C#N)C1 (stereo not drawn) | – | –
5 | – | > 10 | 0.0393 | 0.0346 | – | – | > 10 | – | CO[C@H]1CCN(c2cc(NC(=O)N3CCCc4cc(CN5C(=O)OC[C@@H]5C)c(C=O)nc43)ncc2C#N)C1 | – | –
6 | – | > 10 | 0.0023 | 0.009 | 11300 | – | > 10 | – | COCCNc1cc(NC(=O)N2CCCc3cc(CN4CC[C@H](OC)C4=O)c(C=O)nc32)ncc1C#N | – | –
7 | – | > 10 | 0.0018 | 0.0054 | – | – | > 10 | – | CO[C@@H]1CCN(Cc2cc3c(nc2C=O)N(C(=O)Nc2cc(N[C@@H]4CCOC4)c(C#N)cn2)CCC3)C1=O | – | –
8 | – | > 10 | 0.046 | 0.069 | – | – | > 10 | – | COc1ccccc1Oc1cc(NC(=O)N2CCCc3cc(CN4CCOCC4=O)c(C=O)nc32)ncc1C#N | – | –
9 | – | > 10 | 0.0089 | 0.0173 | – | – | > 10 | – | COCCNc1cc(NC(=O)N2CCCc3cc(CN4CCOCC4=O)c(C=O)nc32)ncc1C#N | – | –
10 | – | > 10 | 0.0037 | 0.0072 | – | – | > 10 | – | N#Cc1cnc(NC(=O)N2CCCc3cc(CN4CCCCOC4=O)c(C=O)nc32)cc1N[C@H]1CCOC1 | – | –
11 | – | > 10 | 0.0133 | 0.0118 | – | – | > 10 | – | CO[C@@H]1CCN(c2cc(NC(=O)N3CCCc4cc(CN5C(=O)OC[C@@H]5C)c(C=O)nc43)ncc2C#N)C1 | – | –
12 | – | > 10 | 0.0136 | 0.0405 | – | – | > 10 | – | COC[C@H](C)Nc1cc(NC(=O)N2CCCc3cc(CN4CC[C@H](OC)C4=O)c(C=O)nc32)ncc1C#N | – | –
13 | – | > 10 | 0.0277 | 0.0518 | – | – | > 10 | – | COCCOc1cc(NC(=O)N2CCCc3cc(CN4CCOCC4=O)c(C=O)nc32)ncc1C#N | – | –
14 | – | > 10 | 0.0387 | 0.0296 | – | – | > 10 | – | CO[C@H]1CCN(c2cc(NC(=O)N3CCCc4cc(CN5CCOC5=O)c(C=O)nc43)ncc2C#N)C1 | – | –
15 | – | > 10 | 0.0227 | 0.0501 | 6780 | – | > 10 | – | N#Cc1cnc(NC(=O)N2CCCc3cc(CN4CCOCC4=O)c(C=O)nc32)cc1S[C@@H]1CCOC1 | – | –
16 | – | > 10 | 0.0022 | 0.0046 | – | – | > 10 | – | COC[C@@H](C)Oc1cc(NC(=O)N2CCCc3cc(CN4CCCCOC4=O)c(C=O)nc32)ncc1C#N | – | –
17 | – | > 10 | 0.069 | 0.0207 | – | – | > 10 | – | COc1ccncc1Nc1cc(NC(=O)N2CCCc3cc(CN4CCOCC4=O)c(C=O)nc32)ncc1C#N | – | –
18 | – | > 10 | 0.0023 | 0.0049 | – | – | > 10 | – | N#Cc1cnc(NC(=O)N2CCCc3cc(CN4CCCCOC4=O)c(C=O)nc32)cc1N[C@@H]1CCOC1 | – | –
19 | – | – | 0.0088 | 0.0163 | – | – | – | – | COCCNc1cc(NC(=O)N2CCCc3cc(CN4CCN(C)CC4=O)c(C=O)nc32)ncc1C#N [FGF401] | 52.5 | 85.9
20 | – | > 10 | 0.0109 | 0.0408 | – | – | > 10 | – | CO[C@H]1CCOC[C@@H]1Oc1cc(NC(=O)N2CCCc3cc(CN4CCOCC4=O)c(C=O)nc32)ncc1C#N | – | –
21 | – | > 10 | 0.001 | 0.0027 | – | – | > 10 | – | CO[C@@H]1CCC[C@H]1Nc1cc(NC(=O)N2CCCc3cc(CN4CCOCC4=O)c(C=O)nc32)ncc1C#N | – | –
22 | – | > 10 | 0.0145 | 0.0361 | 1950 | – | > 10 | – | N#Cc1cnc(NC(=O)N2CCCc3cc(CN4CCOCC4=O)c(C=O)nc32)cc1S[C@H]1CCOC1 | – | –
23 | – | > 10 | 0.0099 | 0.0102 | – | – | > 10 | – | CO[C@@H]1CCN(c2cc(NC(=O)N3CCCc4cc(CN5CCOC5=O)c(C=O)nc43)ncc2C#N)C1 | – | –
24 | – | > 10 | 0.0229 | 0.0653 | – | – | > 10 | – | COC[C@@H]1CCCN1c1cc(NC(=O)N2CCCc3cc(CN4CCOCC4=O)c(C=O)nc32)ncc1C#N | – | –
25 | – | > 10 | 0.0029 | 0.0078 | – | – | > 10 | – | COC[C@@H](C)Oc1cc(NC(=O)N2CCCc3cc(CN4CCOCC4=O)c(C=O)nc32)ncc1C#N | – | –
